Assay [1] deals with Human primary T cells. Nature of the assay: T cell activation: CD69 surface expression by flow cytometry. It is filed as cell-based. The note with it: fold over anti-CD3 stimulated background normalized to Compound 141A; for CD69 1 nM: 1 nM compound; for CD69 10 nM: 10 nM compound; for CD69 100 nM: 100 nM compound. The essentials:
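Negatively selected human primary T cells (1×10^5/well, XVivo-15) were captured on plates coated with 10 μg/mL anti-CD3 (OKT3). They were exposed to serially diluted compounds in duplicate for 48 h at 37° C. CD69 was read by flow cytometry as fold over anti-CD3-only background, normalized to Compound 141A and binned into ranges.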
A general note: A flow cytometer gives signals particle by particle.

Assay [2] concerns the target Cbl-b (36-427 aa truncated form, N-terminus Avi-tag) (Homo sapiens (Human), UniProt Q13191). Description: Cbl-b binding: TR-FRET displacement of BODIPY-FL probe. The procedure, abridged:
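Avi-tagged Cbl-b 36-427 preincubated 1 h at RT with streptavidin-terbium in HEPES pH 7.5/NaCl/Triton/BSA/TCEP buffer, then 1 uM BODIPY-FL inhibitor probe plus compound added for 1 h. Probe displacement read by TR-FRET; IC50 fitted.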

Assay [3] concerns Human primary T cells. Description: T cell activation: secreted IFN-y. It is filed as cell-based. The note with it: 48 hours, fold over background normalized to Compound 141A; for IFN-y 1 nM: 1 nM compound; for IFN-y 10 nM: 10 nM compound; for IFN-y 100 nM: 100 nM compound. The procedure, abridged:
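Negatively selected primary human T cells (1×10^5/well, serum-free XVivo-15) on plates coated with 10 μg/mL anti-CD3 were exposed to serial compound dilutions for 48 h at 37 °C. Secreted IFN-γ was measured by cytometric bead array and expressed as fold over anti-CD3/CD28 background, normalized to a reference compound and binned into ranges A–D.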

Assay [4] has as its system Human primary T cells. Description: T cell activation: secreted IL-2. It is filed as cell-based. The note with it: 48 hours, fold over background normalized to Compound 141A; for IL-2 1 nM: 1 nM compound; for IL-2 10 nM: 10 nM compound; for IL-2 100 nM: 100 nM compound. The procedure, abridged:
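Negatively selected human primary T cells on plate-bound anti-CD3 (OKT3) in serum-free medium, treated 48 h at 37° C. with serial compound dilutions in duplicate. Secreted IL-2 by bead-based cytometric assay, expressed as fold over anti-CD3/CD28 background normalized to a reference compound, then binned into ranges.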

This note sets out measurements from patent US20250304563A1, “ACTIVATORS OF EFFECTOR T CELLS” (Orum Therapeutics, Inc., priority 2022, published 2025).

Chain of Cbl-b (36-427 aa truncated form, N-terminus Avi-tag) (Q13191 36-427): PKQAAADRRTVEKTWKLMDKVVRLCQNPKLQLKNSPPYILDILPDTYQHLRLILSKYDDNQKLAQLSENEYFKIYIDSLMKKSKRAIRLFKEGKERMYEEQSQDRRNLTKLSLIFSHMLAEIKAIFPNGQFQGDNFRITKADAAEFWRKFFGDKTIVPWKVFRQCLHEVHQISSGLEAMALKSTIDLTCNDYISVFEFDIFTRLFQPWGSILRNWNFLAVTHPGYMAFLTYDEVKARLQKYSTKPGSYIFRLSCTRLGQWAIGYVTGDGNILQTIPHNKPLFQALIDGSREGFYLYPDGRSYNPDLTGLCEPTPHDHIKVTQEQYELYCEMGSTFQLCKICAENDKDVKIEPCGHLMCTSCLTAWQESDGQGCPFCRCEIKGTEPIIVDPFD

For orientation: IC50 means the concentration needed to halve the response being measured. The low end stands for greater potency, the high end for weaker potency. On to `Cn1cnnc1CC1(c2cc(NCCC#N)nc(N3Cc4c(cc(CN5CC6(F)CC(CO)(C5)C6)cc4C(F)(F)F)C3=O)c2)COC1.O=C(O)C(F)(F)F` [Compound 164, 3-{[6-(6-{[1-fluoro-5-(hydroxymethyl)-3-azabicyclo[3.1.1]heptan-3-yl]methyl}-1-oxo-4-(trifluoromethyl)-3H-isoindol-2-yl)-4-{3-[(4-methyl-1,2,4-triazol-3-yl)methyl]oxetan-3-yl}pyridin-2-yl]amino}propanenitrile; trifluoroacetic acid], for which, in the assay on Human primary T cells [1], the “CD69 1 nM” value is “C (values between 0.30 and 0.60: range “C”)”; the “CD69 10 nM” value was “C (values between 0.30 and 0.60: range “C”)”; the “CD69 100 nM” value was “C (values between 0.30 and 0.60: range “C”)”. In addition, the IC50 in assay [2] was in the range of 5.01 to 20 nM. Moreover, in the assay with Human primary T cells [3], the “IFN-y 1 nM” value is “C (values between 0.10 and 0.30: range “C”)”; the “IFN-y 10 nM” value is “C (values between 0.10 and 0.30: range “C”)”; the “IFN-y 100 nM” value is “B (values between 0.31 and 1.00: range “B;”)”. Moreover, in the assay on Human primary T cells [4], the “IL-2 1 nM” value is “C (values between 0.10 and 0.30: range “C”)”; the “IL-2 10 nM” value was “C (values between 0.10 and 0.30: range “C”)”; the “IL-2 100 nM” value is “C (values between 0.10 and 0.30: range “C”)”.
Turning to `CCSc1cc(C2(Cc3nncn3C)COC2)cc(N2Cc3c(C=O)cc(CN4CCC[C@H](C)C4)cc3C2=O)n1` [Compound 169, 2-[6-(ethylsulfanyl)-4-{3-[(4-methyl-1,2,4-triazol-3-yl)methyl]oxetan-3-yl}pyridin-2-yl]-6-{[(3S)-3-methylpiperidin-1-yl]methyl}-1-oxo-3H-isoindole-4-carbaldehyde], in the assay on Human primary T cells [1], the “CD69 1 nM” value was “C (values between 0.30 and 0.60: range “C”)”; the “CD69 10 nM” value was “C (values between 0.30 and 0.60: range “C”)”; the “CD69 100 nM” value is “C (values between 0.30 and 0.60: range “C”)”. Besides, the IC50 in assay [2] is 5.01 to 20 nM. Besides, in the assay with Human primary T cells [3], the “IFN-y 1 nM” value was “C (values between 0.10 and 0.30: range “C”)”; the “IFN-y 10 nM” value is “B (values between 0.31 and 1.00: range “B;”)”; the “IFN-y 100 nM” value was “B (values between 0.31 and 1.00: range “B;”)”. Moreover, in the assay on Human primary T cells [4], the “IL-2 1 nM” value was “C (values between 0.10 and 0.30: range “C”)”; the “IL-2 10 nM” value was “C (values between 0.10 and 0.30: range “C”)”; the “IL-2 100 nM” value was “C (values between 0.10 and 0.30: range “C”)”.
Regarding `CSc1cc(C(CO)N2CCC[C@H](C)C2)cc2c1CN(c1cccc([C@]3(c4nncn4C)C[C@H](C)C3)c1)C2=O` (stereo partly drawn) [Compound 170, 6-{2-hydroxy-1-[(3S)-3-methylpiperidin-1-yl]ethyl}-4-(methylsulfanyl)-2-{3-[(1r,3s)-3-methyl-1-(4-methyl-1,2,4-triazol-3-yl)cyclobutyl]phenyl}-3H-isoindol-1-one], in the assay with Human primary T cells [1], the “CD69 1 nM” value is “C (values between 0.30 and 0.60: range “C”)”; the “CD69 10 nM” value was “C (values between 0.30 and 0.60: range “C”)”; the “CD69 100 nM” value is “A (values between 0.81 and 1.10: range “A”)”. This compound also returned an IC50 in assay [2] of 1 to 5 nM. In addition, in the assay on Human primary T cells [3], the “IFN-y 1 nM” value is “B (values between 0.31 and 1.00: range “B;”)”; the “IFN-y 10 nM” value was “B (values between 0.31 and 1.00: range “B;”)”; the “IFN-y 100 nM” value is “B (values between 0.31 and 1.00: range “B;”)”. Moreover, in the assay on Human primary T cells [4], the “IL-2 1 nM” value was “C (values between 0.10 and 0.30: range “C”)”; the “IL-2 10 nM” value is “C (values between 0.10 and 0.30: range “C”)”; the “IL-2 100 nM” value was “B (values between 0.31 and 0.79: range “B”)”.
